Data on 3 compounds can be found in article PMC3531872 (Chemical research in toxicology, 2011).

Like-named read-outs stand apart in the source and are kept apart here. Some results are limits rather than exact numbers.

Data set [1] relates to liver, pancreas and colorectal DNA. Briefly: In vivo DNA binding.
For data set [2], the target named is T1, Recombinant human P450 1B1 (Homo sapiens, UniProt Q16678).
T1 sequence (Q16678 1-543): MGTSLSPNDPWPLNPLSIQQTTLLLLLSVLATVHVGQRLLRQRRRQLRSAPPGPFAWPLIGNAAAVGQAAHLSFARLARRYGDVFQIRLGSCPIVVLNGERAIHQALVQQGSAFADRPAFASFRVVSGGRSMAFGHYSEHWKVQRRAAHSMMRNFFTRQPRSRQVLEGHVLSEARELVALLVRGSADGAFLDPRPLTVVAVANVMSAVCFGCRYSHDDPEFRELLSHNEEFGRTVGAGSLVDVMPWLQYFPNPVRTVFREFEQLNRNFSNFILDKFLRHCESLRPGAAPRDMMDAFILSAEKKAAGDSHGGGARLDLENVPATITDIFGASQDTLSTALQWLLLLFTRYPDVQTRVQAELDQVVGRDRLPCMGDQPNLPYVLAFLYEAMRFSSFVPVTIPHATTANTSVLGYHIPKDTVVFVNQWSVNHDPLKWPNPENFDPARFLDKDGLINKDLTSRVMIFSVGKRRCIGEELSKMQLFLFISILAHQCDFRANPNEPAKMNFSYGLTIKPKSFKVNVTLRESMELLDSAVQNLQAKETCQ
Briefly: N- and C-oxidation by recombinant human P450 1B1. The class given is in vitro ADME.

The target in data set [3] is T2, Recombinant human P450 1A1 (Homo sapiens, UniProt P04798).
T2 sequence (P04798 1-512): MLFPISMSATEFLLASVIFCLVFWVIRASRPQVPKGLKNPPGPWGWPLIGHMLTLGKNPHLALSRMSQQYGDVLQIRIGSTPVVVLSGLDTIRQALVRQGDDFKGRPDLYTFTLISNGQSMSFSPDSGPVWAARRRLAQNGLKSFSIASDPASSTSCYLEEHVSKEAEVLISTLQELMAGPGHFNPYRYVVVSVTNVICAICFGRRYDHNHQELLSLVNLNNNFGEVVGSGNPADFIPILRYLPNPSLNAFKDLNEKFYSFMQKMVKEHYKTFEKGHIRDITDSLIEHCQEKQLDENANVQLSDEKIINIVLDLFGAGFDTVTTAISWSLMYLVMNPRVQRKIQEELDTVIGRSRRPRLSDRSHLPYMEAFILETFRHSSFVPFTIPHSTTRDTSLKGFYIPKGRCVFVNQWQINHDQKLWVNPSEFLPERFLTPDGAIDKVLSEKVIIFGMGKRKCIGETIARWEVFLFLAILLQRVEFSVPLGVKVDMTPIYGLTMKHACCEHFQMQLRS
The experiment in a line: N- and C-oxidation by recombinant human P450 1A1. The class given is in vitro ADME.

A short description of data set [4]: Plasma clearance of 14C radioactivity in mice. The class given is in vivo, female C57BL/6J mice.
The subject of a further data set is rat liver DNA. The settings on record: 24 h following oral dosing with MeIQx (10 mg/kg); cited from earlier work.
Another data set relates to liver DNA. The following applies: male C57BL/6 mice; 24 h post-treatment; 5 mg/kg; cited from earlier work.
The nature of data set [5]: N- and C-oxidation with human liver microsomes. In kind it is in vitro ADME. The following applies: 200 μM, pH 7.6. In general terms: Liver microsomes are vesicles of endoplasmic reticulum, rich in cytochrome P450 enzymes.
Data set [6] in a line: N- and C-oxidation with mouse liver microsomes. In kind it is in vitro ADME, female C57BL/6J mice. The following applies: female, C57BL/6J, 200 μM, pH 7.6.
The subject of data set [7] is S. typhimurium strain YG1024. The following applies: cited from earlier work.
The next data set has as its system mouse liver DNA. The settings on record: in vivo.
The test system of data set [8] is S. typhimurium tester strain TA98. The following applies: cited from earlier work.
Data set [9] has as its system liver, pancreas and colorectal DNA. The settings on record: female, C57BL/6J, mouse, in vivo.

Turning to `Cc1cnc2ccc3c(nc(N)n3C)c2n1` [MeIQx, 2-Amino-3,8-dimethylimidazo[4,5-f]quinoxaline], in [1] (Time 4 h), the “Covalent Binding Index, colon” value is on record as 113 ±119 (μ mol/mol dNp)/(mmol carcinogen/kg bw); the “Covalent Binding Index, liver” value is listed as 27.7 ± 8.3 (μ mol/mol dNp)/(mmol carcinogen/kg bw); the “Covalent Binding Index, pancreas” value is given as 0.8 ± 0.2 (μ mol/mol dNp)/(mmol carcinogen/kg bw). Further, in [1] (Time 24 h), the “Covalent Binding Index, colon” value is on record as 10.4 ± 11.9 (μ mol/mol dNp)/(mmol carcinogen/kg bw); the “Covalent Binding Index, liver” value is recorded as 11.5 ± 7.7 (μ mol/mol dNp)/(mmol carcinogen/kg bw); the “Covalent Binding Index, pancreas” value is on record as 0.2 ± 0.1 (μ mol/mol dNp)/(mmol carcinogen/kg bw). Moreover, in data set [1] (Time 48 h), the “Covalent Binding Index, colon” value is listed as 2.1 ± 0.9 (μ mol/mol dNp)/(mmol carcinogen/kg bw); the “Covalent Binding Index, liver” value was 20.5 ± 8.4 (μ mol/mol dNp)/(mmol carcinogen/kg bw); the “Covalent Binding Index, pancreas” value is recorded as 0.1 ± 0.1 (μ mol/mol dNp)/(mmol carcinogen/kg bw). Moreover, the “time of highest level of 14C isotope in colorectal DNA” value in data set [1] (colorectal DNA, time points 4, 24, 48 h) was found to be 4 h. The “14C-isotope associated with liver DNA at 48 h, relative to 4 h” value in [1] (liver DNA, T 48 h vs 4 h) is recorded as “up to 74%”. In addition, in [1] (liver, 24 h post treatment, 2.13 mg/kg by gavage), the “total [14C]-MeIQx-DNA adduct formation, based upon AMS measurements” value is listed as 11.4 ± 7.6 adducts per 10^8 nucleotides. Besides, in data set [1] (liver, T4 and 24 h, range over both HAAs), the “CBI in liver at T4 and 24 h” value is recorded as 7 - 28. Besides, the “14C-isotope associated with pancreas DNA at 48 h, relative to 4 h” value in [1] (pancreas DNA, T 48 h vs 4 h) is no more than 25%. Also, the “N-oxidation by P450 1B1 (in words)” value in data set [2] (recombinant human P450 1B1) was “low to not detectable”. Also, in data set [3] (recombinant human P450 1A1), the “N-oxidation by P450 1A1 (in words)” value is reported as “low to not detectable”. In addition, the “radioactivity cleared from plasma within 48 h” value in data set [4] (gavage, 14C-MeIgQx 9.68 mg/kg or 14C-MeIQx 2.13 mg/kg) is listed as “greater than 95%”. Also, the “time of peak plasma levels in radioactivity” value in data set [4] (gavage, 14C-MeIgQx 9.68 mg/kg or 14C-MeIQx 2.13 mg/kg, time points 4, 24, 48 h) was found to be 4 h. Moreover, in the data set with rat liver DNA, the “dA-N^6-MeIQx adduct level relative to dG-C8-MeIQx” value is reported as ~ 5% and the “dG-N^2-MeIQx adduct level relative to dG-C8-MeIQx” value was 30 - 50%. In the data set on liver DNA, the “[14C]-MeIQx bound to liver DNA” value is given as “about 20 adducts per 10^8 nucleotides”.
`Cc1cnc2cc3nc(N)n(C)c3cc2n1` [MeIgQx, 2-Amino-1,7-dimethylimidazo[4,5-g]quinoxaline]: in data set [5], the “Estimated C-oxidation rate, HO-MeIg Qx formation” value (shortened to “Estimated C-oxidation rate”) was 0.1 ± 0.01 nmol/min/mg microsomal protein; the “Estimated N-oxidation rate, HONH-MeIg Qx formation” value (“Estimated N-oxidation rate” for short) was 0.4 ± 0.02 nmol/min/mg microsomal protein; the “rate of N-oxidation” value stood at 0.4 nmol/min/mg protein. Also, in data set [2] (human, 200 μM, pH 7.6), the “Estimated C-oxidation rate” value is recorded as 2.5 ± 0.3 nmol/min/100 pmol P450 and the “Estimated N-oxidation rate” value is listed as 3.9 ± 0.6 nmol/min/100 pmol P450. Besides, in data set [6], the “Estimated C-oxidation rate” value is given as 0.5 ± 0.2 nmol/min/mg microsomal protein and the “Estimated N-oxidation rate” value is 0.3 ± 0.1 nmol/min/mg microsomal protein. Besides, in data set [3] (human, 200 μM, pH 7.6), the “Estimated C-oxidation rate” value is listed as 6.9 ± 2.4 nmol/min/100 pmol P450 and the “Estimated N-oxidation rate” value is reported as 14.1 ± 4.9 nmol/min/100 pmol P450. The “rate of MeIgQx N-oxidation by P450 1A1 relative to P450 1A2” value in [3] (human, recombinant enzyme, 200 μM, pH 7.6) is reported as ~ 3 fold. For the same compound, in [7], the “genotoxic potency in YG1024 relative to TA98, fold greater” value is given as 16 fold and the “mutagenic potency, fold weaker than PhIP” value is “about 10 fold”. Also, in the data set with mouse liver DNA, the “potential dA adduct of MeIgQx ([M+H]+ at m/z 463.2)” value is “no peaks were detected above background level” and the “putative dG-C8-MeIgQx adduct, MS^2 or MS^3 scan stages” value is given as “not detected”. In data set [4] (female, C57BL/6J, mouse, in vivo, 48 h), the “radioactivity cleared from plasma within 48 h” value is “greater than 95%”. In addition, in data set [8], the “potency in the Ames reversion assay, fold lower than MeIQx” value is given as “about 4,000 fold”. For the same compound, in data set [9], the “CBI in liver at T4 and 24 h” value is given as 7 - 28; the “time of highest level of 14C isotope in colorectal DNA” value was determined as 24 h. For the same compound, in data set [9] (4 h), the “Covalent Binding Index, colon” value was 12.0 ± 6.5 (μ mol/mol dNp)/(mmol carcinogen/kg bw); the “Covalent Binding Index, liver” value is on record as 21.7 ± 8.6 (μ mol/mol dNp)/(mmol carcinogen/kg bw); the “Covalent Binding Index, pancreas” value is on record as 2.4 ± 2.4 (μ mol/mol dNp)/(mmol carcinogen/kg bw). Besides, in [9] (24 h), the “14C-isotope associated with liver DNA at 24 h, relative to 4 h” value was 33%; the “14C-isotope associated with pancreas DNA at 24 h, relative to 4 h” value is given as 44%; the “Covalent Binding Index, colon” value is listed as 138 ±114 (μ mol/mol dNp)/(mmol carcinogen/kg bw); the “Covalent Binding Index, liver” value was 7.0 ± 3.2 (μ mol/mol dNp)/(mmol carcinogen/kg bw). Besides, the “Covalent Binding Index, pancreas” value in data set [9] (24 h) is 1.1 ± 0.6 (μ mol/mol dNp)/(mmol carcinogen/kg bw). In data set [9] (48 h), the “14C-isotope associated with liver DNA at 48 h, relative to 4 h” value stood at 27%; the “14C-isotope associated with pancreas DNA at 48 h, relative to 4 h” value is reported as 17%; the “Covalent Binding Index, colon” value is 28.7 ± 18.5 (μ mol/mol dNp)/(mmol carcinogen/kg bw); the “Covalent Binding Index, liver” value is 5.8 ± 0.6 (μ mol/mol dNp)/(mmol carcinogen/kg bw). Moreover, in [9] (48 h), the “Covalent Binding Index, pancreas” value is given as 0.2 ± 0.2 (μ mol/mol dNp)/(mmol carcinogen/kg bw).
On to `Cn1c(N)nc2ncc(-c3ccccc3)cc21` [PhIP, 2-amino-1-methyl-6-phenylimidazo[4,5-b]pyridine, reference compound], for which, in [7] (S. typhimurium YG1024), the mutagenic potency is 3,015 rev/μg.
